# Data published in patent publication US9695155B2, “Herbicidal substituted pyrimidinyloxy benzene compounds” (E. I. DU PONT DE NEMOURS AND COMPANY, priority 2013, dated 2017).
# Assays:
# [1] = tested on: giant foxtail; experiment: Test A postemergence; assay type: in vivo, Setaria faberii; conditions: for Foxtail, Giant plant response rating: 125 g ai/ha
# Method in brief: (§1)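 Scoring: eye-based comparison with untreated controls, 0 for no effect through 100 for complete control, at about day 10. Treatments: directed soil spray preemergence; foliar spray postemergence on 2–10 cm plants at the one- to two-leaf stage. Medium: loam soil with sand.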
# [2] = tested on: pigweed; experiment: Test A preemergence; assay type: in vivo, Amaranthus retroflexus; conditions: for Pigweed plant response rating (0 to 100 scale): 125 g ai/ha
# Method in brief: as §1
# [3] = tested on: large (Lg) crabgrass; experiment: Test A postemergence; assay type: in vivo, Digitaria sanguinalis; conditions: for Crabgrass, Large plant response rating: 125 g ai/ha
# Method in brief: as §1
# [4] = tested on: velvetleaf; experiment: Test A postemergence; assay type: in vivo, Abutilon theophrasti; conditions: for Velvetleaf plant response rating: 125 g ai/ha
# Method in brief: as §1
# [5] = tested on: barnyardgrass; experiment: Test A preemergence; assay type: in vivo, Echinochloa crus-galli; conditions: for Barnyardgrass plant response rating (0 to 100 scale, 0 is no effect, 100 is complete control): 125 g ai/ha
# Method in brief: as §1
# [6] = tested on: sedge, umbrella; experiment: Test B flooded paddy test; assay type: in vivo, Cyperus difformis; conditions: Flood, 250 g ai/ha; 0 to 100 scale where 0 is no effect and 100 is complete control
# Method in brief: (§2)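 Visual ratings on a 0 to 100 scale, where 100 means complete control, compared treated plants with controls after 13 to 15 days in a greenhouse. Treatment went into paddy water 3 cm deep over the soil, applied to plants at the 2-leaf stage.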
# [7] = tested on: barnyardgrass; experiment: Test B flooded paddy test; assay type: in vivo, Echinochloa crus-galli; conditions: Flood, 250 g ai/ha; 0 to 100 scale where 0 is no effect and 100 is complete control
# Method in brief: as §2
# [8] = tested on: rice; experiment: Test B flooded paddy test; assay type: in vivo, Oryza sativa; conditions: Flood, 250 g ai/ha; 0 to 100 scale where 0 is no effect and 100 is complete control
# Method in brief: as §2
# [9] = tested on: corn; experiment: Test A preemergence; assay type: in vivo, Zea mays; conditions: for Corn plant response rating (0 to 100 scale): 125 g ai/ha
# Method in brief: as §1
# [10] = tested on: velvetleaf; experiment: Test A preemergence; assay type: in vivo, Abutilon theophrasti; conditions: for Velvetleaf plant response rating (0 to 100 scale): 125 g ai/ha
# Method in brief: as §1
# [11] = tested on: barnyardgrass; experiment: Test A postemergence; assay type: in vivo, Echinochloa crus-galli; conditions: for Barnyardgrass plant response rating: 125 g ai/ha
# Method in brief: as §1
# [12] = tested on: corn; experiment: Test A postemergence; assay type: in vivo, Zea mays; conditions: for Corn plant response rating: 125 g ai/ha
# Method in brief: as §1
# [13] = tested on: wheat; experiment: Test A postemergence; assay type: in vivo, Triticum aestivum; conditions: for Wheat plant response rating: 125 g ai/ha
# Method in brief: as §1
# [14] = tested on: Heteranthera limosa; experiment: Test B flooded paddy test; assay type: in vivo; conditions: Flood, 250 g ai/ha; 0 to 100 scale where 0 is no effect and 100 is complete control
# Method in brief: as §2
# [15] = tested on: wheat; experiment: Test A preemergence; assay type: in vivo, Triticum aestivum; conditions: for Wheat plant response rating (0 to 100 scale): 125 g ai/ha
# Method in brief: as §1
# [16] = tested on: large (Lg) crabgrass; experiment: Test A preemergence; assay type: in vivo, Digitaria sanguinalis; conditions: for Crabgrass, Large plant response rating (0 to 100 scale): 125 g ai/ha
# Method in brief: as §1
# [17] = tested on: pigweed; experiment: Test A postemergence; assay type: in vivo, Amaranthus retroflexus; conditions: for Pigweed plant response rating: 125 g ai/ha
# Method in brief: as §1
# [18] = tested on: giant foxtail; experiment: Test A preemergence; assay type: in vivo, Setaria faberii; conditions: for Foxtail, Giant plant response rating (0 to 100 scale): 125 g ai/ha
# Method in brief: as §1
# [19] = tested on: morningglory; experiment: Test A preemergence; assay type: in vivo, Ipomoea spp.; conditions: for Morningglory plant response rating (0 to 100 scale): 125 g ai/ha
# Method in brief: as §1
# [20] = tested on: morningglory; experiment: Test A postemergence; assay type: in vivo, Ipomoea spp.; conditions: for Morningglory plant response rating: 125 g ai/ha
# Method in brief: as §1
# [21] = 0 to 100 scale where 0 is no effect and 100 is complete control
# [22] = 500 g ai/ha, 0 to 100 scale where 0 is no effect and 100 is complete control
# [23] = 1000 g ai/ha, 0 to 100 scale, 0 no effect, 100 complete control
# [24] = 1000 g ai/ha, 0 to 100 scale, 0 no effect, 100 complete control, approx. 10 days
Structure (SMILES),"Foxtail, Giant plant response rating [1, 21]","Plant response rating, Foxtail, Giant [1, 22]",Pigweed plant response rating (0 to 100 scale) [2],"Pigweed plant response rating [2, 22]","Crabgrass, Large plant response rating [3, 21]","Plant response rating, Crabgrass, Large [3, 22]","Velvetleaf plant response rating [4, 21]","Plant response rating, Velvetleaf [4, 22]","Barnyardgrass plant response rating (0 to 100 scale, 0 is no effect, 100 is complete control) [5]","Barnyardgrass plant response rating [5, 22]","Plant response rating, Sedge, Umbrella [6]","Plant response rating, Barnyardgrass [7]","Plant response rating, Rice [8]",Corn plant response rating (0 to 100 scale) [9],"Corn plant response rating [9, 22]",Velvetleaf plant response rating (0 to 100 scale) [10],"Velvetleaf plant response rating [10, 22]","Barnyardgrass plant response rating [11, 21]","Plant response rating, Barnyardgrass [11, 22]","Plant response rating, Ducksalad [14]",further results
N#Cc1cccc(Oc2ncc(Cl)cn2)c1-n1cccn1 [Compound 208],0,20,30,100,0,20,40,60,0,70,0,0,0,0,0,0,50,0,0,0,"Corn plant response rating [12, 21]: 0; Plant response rating, Corn [12, 22]: 20; Wheat plant response rating [13, 21]: 0; Plant response rating, Wheat [13, 22]: 0; Wheat plant response rating (0 to 100 scale) [15]: 0; Wheat plant response rating [15, 22]: 20; Crabgrass, Large plant response rating (0 to 100 scale) [16]: 20; Crabgrass, Large plant response rating [16, 22]: 100; Pigweed plant response rating [17, 21]: 30; Plant response rating, Pigweed [17, 22]: 100; Foxtail, Giant plant response rating (0 to 100 scale) [18]: 20; Foxtail, Giant plant response rating [18, 22]: 90; Morningglory plant response rating (0 to 100 scale) [19]: 0; Morningglory plant response rating [19, 22]: 30; Morningglory plant response rating [20, 21]: 20; Plant response rating, Morningglory [20, 22]: 80"
FC(F)c1cccc(Oc2ncc(Cl)cn2)c1-n1cc(Cl)cn1 [Compound 209],70,90,100,100,70,90,100,100,60,100,60,30,0,0,20,90,90,40,100,75,"Corn plant response rating [12, 21]: 30; Plant response rating, Corn [12, 22]: 70; Wheat plant response rating [13, 21]: 0; Plant response rating, Wheat [13, 22]: 70; Wheat plant response rating (0 to 100 scale) [15]: 0; Wheat plant response rating [15, 22]: 20; Crabgrass, Large plant response rating (0 to 100 scale) [16]: 100; Crabgrass, Large plant response rating [16, 22]: 100; Pigweed plant response rating [17, 21]: 100; Plant response rating, Pigweed [17, 22]: 100; Foxtail, Giant plant response rating (0 to 100 scale) [18]: 100; Foxtail, Giant plant response rating [18, 22]: 100; Morningglory plant response rating (0 to 100 scale) [19]: 10; Morningglory plant response rating [19, 22]: 70; Morningglory plant response rating [20, 21]: 50; Plant response rating, Morningglory [20, 22]: 90"
FC(F)c1cccc(Oc2ncc(Br)cn2)c1-n1cc(Cl)cn1 [Compound 210],30,60,100,100,40,70,60,80,10,70,60,0,15,0,0,20,60,20,40,75,"Corn plant response rating [12, 21]: 10; Plant response rating, Corn [12, 22]: 30; Wheat plant response rating [13, 21]: 0; Plant response rating, Wheat [13, 22]: 0; Wheat plant response rating (0 to 100 scale) [15]: 0; Wheat plant response rating [15, 22]: 0; Crabgrass, Large plant response rating (0 to 100 scale) [16]: 100; Crabgrass, Large plant response rating [16, 22]: 100; Pigweed plant response rating [17, 21]: 100; Plant response rating, Pigweed [17, 22]: 100; Foxtail, Giant plant response rating (0 to 100 scale) [18]: 100; Foxtail, Giant plant response rating [18, 22]: 100; Morningglory plant response rating (0 to 100 scale) [19]: 0; Morningglory plant response rating [19, 22]: 0; Morningglory plant response rating [20, 21]: 20; Plant response rating, Morningglory [20, 22]: 30"
COC(=O)c1cccc(Oc2ncc(Cl)cn2)c1-n1cc(Br)cn1 [Compound 211],30,60,90,100,10,50,50,90,0,60,0,0,0,0,0,60,90,10,50,0,"Corn plant response rating [12, 21]: 0; Plant response rating, Corn [12, 22]: 0; Wheat plant response rating [13, 21]: 0; Plant response rating, Wheat [13, 22]: 0; Wheat plant response rating (0 to 100 scale) [15]: 0; Wheat plant response rating [15, 22]: 0; Crabgrass, Large plant response rating (0 to 100 scale) [16]: 80; Crabgrass, Large plant response rating [16, 22]: 100; Pigweed plant response rating [17, 21]: 90; Plant response rating, Pigweed [17, 22]: 100; Foxtail, Giant plant response rating (0 to 100 scale) [18]: 100; Foxtail, Giant plant response rating [18, 22]: 100; Morningglory plant response rating (0 to 100 scale) [19]: 20; Morningglory plant response rating [19, 22]: 70; Morningglory plant response rating [20, 21]: 90; Plant response rating, Morningglory [20, 22]: 100"
CC(=O)Oc1cccc(Oc2ncc(Cl)cn2)c1-n1cc(Cl)cn1 [Compound 216],–,–,–,–,–,–,–,–,–,–,0,0,0,–,–,–,–,–,–,0,"Plant response rating, Foxtail, Giant [1, 23]: 30; Pigweed plant response rating [2, 24]: 100; Plant response rating, Crabgrass, Large [3, 23]: 40; Plant response rating, Velvetleaf [4, 23]: 100; Barnyardgrass plant response rating [5, 24]: 30; Corn plant response rating [9, 24]: 0; Velvetleaf plant response rating [10, 24]: 30; Plant response rating, Barnyardgrass [11, 23]: 0; Plant response rating, Corn [12, 23]: 0; Plant response rating, Wheat [13, 23]: 0; Wheat plant response rating [15, 24]: 0; Crabgrass, Large plant response rating [16, 24]: 70; Plant response rating, Pigweed [17, 23]: 100; Foxtail, Giant plant response rating [18, 24]: 40; Morningglory plant response rating [19, 24]: 0; Plant response rating, Morningglory [20, 23]: 40"
